Data taken from patent publication US8288433B2, “Diazeniumdiolate compounds, a process for their preparation and pharmaceutical compositions containing them” (Les Laboratoires Servier, priority 2007, dated 2012).

Experiments:
[1] = test system: SD rats anaesthetised with pentobarbital; test: NO-donor activity in vivo, reduction of arterial pressure in anaesthetised rats; settings: i.v. dose of 100 μg/kg
Description: The NO-donor effect of the compound is evaluated by the reduction in pressure caused in SD rats anaesthetised with pentobarbital. After stabilisation of the arterial pressure, the product under test is administered i.v. in increasing doses.

[2] = test system: Aorta rings without endothelium; test: NO-donor activity in vitro, relaxation of noradrenaline-contracted aorta rings; settings: aorta rings without endothelium contracted by noradrenaline (0.1-0.3 μM); read-out: IC50 (relaxant effect)
Description: Aorta rings without endothelium are used. After a first contraction induced by 60 mM KCl to characterise the sensitivity of the ring, and washing, a stable contraction is induced by noradrenaline (0.1-0.3 μM) in the presence or absence of ODQ. A cumulative concentration series is applied and the activity of the product under test is calculated by an IC50 (dose that inhibits the maximum effect by 50%).

conscious Wistar rats = test: Diuretic effect in vivo, urine volume in conscious rats; settings: oral dose of 10 mg/kg, urine volume after 6 hours, relative to control group
Description: The diuretic effect is tested on conscious Wistar rats. The animals are subjected to fasting for 18 h before the experiment and put on a diet of water 90 minutes before the experiment. The product under test is then administered orally by force-feeding, the rat is placed in a metabolism cage and the volume of urine is measured after 6 hours. The volume is expressed in relation to the volume measured in a control group of rats.

Structure (SMILES)	reduction of the arterial pressure [1]	IC50 [2]	increase of the excretion of urine (conscious Wistar rats)
CCN(CC)/[N+]([O-])=N/OCOC(=O)c1cccc(CNS(=O)(=O)c2cc(C(=O)NN3c4ccc([N+](=O)[O-])cc4CC3C)ccc2Cl)c1 (stereo not drawn) [Example 1]	56%	120 nM	108%
CCN(CC)/[N+]([O-])=N/OCOC(=O)c1ccc(CNS(=O)(=O)c2cc(C(=O)NN3c4ccccc4C[C@H]3C)ccc2Cl)cc1 [Example 10, ({[(1Z)-2,2-diethyl-1-oxidohydrazono]amino}oxy)methyl 4-({[(2-chloro-5-{[(2R)-2-methyl-2,3-dihydro-1H-indol-1-yl]carbamoyl}phenyl)-sulphonyl]amino}methyl)benzoate]	55%	40 nM	248%
